Test results: patent US6358883B1, “Pesticidal and parasiticidal use of 1-aryl-1-(substituted thio, sulfinyl and sulfonyl)-2-nitroethane compounds” (American Cyanamid Company, priority 1998, dated 2002)

How the values were obtained:
Format in all cases: in vivo
[1] = system: M. incognita (Root Knot Nematode) larvae; assay: Evaluation of test compounds against M. incognita larvae in microtiter plate wells (movement score); conditions: larvae scored for movement after 20-24 hours; note: key: A score of '9' indicates inactive worms with a straight, sticklike morphology; A score of '8' indicates inactive worms with a limp, curled or curved morphology; A score of '7' indicates dead/paralyzed worms after 72 hours
Procedure: Evaluation of Test Compounds Against M. incognita (Root Knot Nematode)
Newly emerged M. incognita larvae are suspended in S Medium (buffered salt solution) to a concentration of 50-65 worms per 50 μl. 50 μl of the worm suspension are pipetted into microtiter plate wells containing the test compounds. The plates are then covered with plactic plate sealers to reduce loss of volume by evaporation. After 20-24 hours of incubation, the larvae are scored for movement. Wells containing obviously dead/paralyzed larvae are scored as positive. […] A score of “7” indicates dead/paralyzed worms after […].

[2] = system: C. elegans (Bristol strain); assay: Evaluation of test compounds against C. elegans (motility, 96-well plate); set-up: key: 9=complete kill in 4 hours; 8=complete kill in 24 hours; 7=markedly reduced motility in approximately 95% of worms in 24 hours; 0=normal motility, same as controls; conditions: motility at 4 and 24 hours
Procedure: Evaluation of Test Compounds Against C. elegans Cultures of C. elegans (Bristol strain from J. Lewis) are maintained on E. coli lawns on NG Agar Plates at 20° C. New cultures are established weekly. Nematodes for testing are washed from cultures using Na buffer. Compounds are dissolved in 80% acetone. The test material is micropipetted (25 μl) into a single well of a 96-well sterile tissue culture plate and the solvent allowed to evaporate. A freshly prepared volume (50 μl) of C. elegans in Na buffer is micropipetted into each treated well and several control wells per plate. Plates are incubated at 20° C. Observations for efficacy are made under a dissecting microscope at 4 and 24 hours post-immersion. Immediately prior to reading the plate, it is gently tapped to stimulate the movement of the worms. Activity is judged subjectively, but semi-quantitatively, based on the drug effects on motility of the adults and larvae.

[3] = system: Spodoptera eridania, 2nd instar larvae, southern armyworm (SAW); assay: Southern armyworm (SAW) leaf dip test; set-up: key: 0 = no effect; 1 = 10-25% kill; 2 = 26-35% kill; 3 = 36-45% kill; 4 = 46-55% kill; 5 = 56-65% kill; 6 = 66-75% kill; 7 = 76-85% kill; 8 = 86-99% kill; 9 = 100% kill
Procedure: (§1) Test solutions are prepared by dissolving the test compound in a 35% acetone in water mixture to give a concentration of 10,000 ppm. Subsequent dilutions are made with water as needed.
Spodoptera eridania, 2nd Instar Larvae, Southern Armyworm (SAW)
A Sieva lima bean leaf expanded to 7-8 cm in length is dipped in the test solution with agitation for 3 seconds and allowed to dry in a hood. The leaf is then placed in a 100×10 mm petri dish containing a damp filter paper on the bottom and ten 2nd instar caterpillars. At 5 days, observations are made of mortality, reduced feeding, or any interference with normal molting.

[4] = system: Diabrotica virgifera virgifera Leconte, 2nd instar western corn rootworm (WCR); assay: Western corn rootworm (WCR) soil test; set-up: key: 0 = no effect; 1 = 10-25% kill; 2 = 26-35% kill; 3 = 36-45% kill; 4 = 46-55% kill; 5 = 56-65% kill; 6 = 66-75% kill; 7 = 76-85% kill; 8 = 86-99% kill; 9 = 100% kill
Procedure: Test solutions are prepared by dissolving the test compound in a 35% acetone in water mixture to give a concentration of 10,000 ppm. Subsequent dilutions are made with water as needed. Diabrotica virgifera virgifera Leconte, 2nd Instar Western Corn Rootworm (WCR) One cc of fine talc is placed in a 30 mL wide-mouth screw-top glass jar. One mL of the appropriate acetone test solution is pipetted onto the talc so as to provide 1.25 mg of active ingredient per jar. The jars are set under a gentle air flow until the acetone is evaporated. The dried talc is loosened, 1 cc of millet seed is added to serve as food for the insects and 25 mL of moist soil is added to each jar. The jar is capped and the contents thoroughly mixed mechanically. Following this, ten 2nd instar rootworms are added to each jar and the jars are loosely capped to allow air exchange for the larvae. The treatments are held for 5 days when mortality counts are made. Missing larvae are presumed dead, since they decompose rapidly and cannot be found. The concentrations of active ingredient used in this test correspond approximately to 50 kg/ha. [table]

[5] = system: Tetranychus urticae (OP-resistant strain), 2-spotted spider mite (TSM); assay: 2-spotted spider mite (TSM) plant dip test; set-up: key: 0 = no effect; 1 = 10-25% kill; 2 = 26-35% kill; 3 = 36-45% kill; 4 = 46-55% kill; 5 = 56-65% kill; 6 = 66-75% kill; 7 = 76-85% kill; 8 = 86-99% kill; 9 = 100% kill; conditions: mortality after 2 days
Procedure: as §1
Tetranychus urticae (OP-resistant strain), 2-spotted Spider Mite (TSM)
Sieva lima bean plants with primary leaves expanded to 7-8 cm are selected and cut back to one plant per pot. A small piece is cut from an infested leaf taken from the main colony and placed on each leaf of the test plants. This is done about 2 hours before treatment to allow the mites to move over to the test plant to lay eggs. The size of the cut, infested leaf is varied to obtain about 100 mites per leaf. At the time of test treatment, the piece of leaf used to transfer the mites is removed and discarded. The newly-infested plants are dipped in the test solution for 3 seconds with agitation and set in the hood to dry. After 2 days, one leaf is removed and mortality counts are made.

[6] = system: Aphis gossypii, cotton aphid (CA); assay: Cotton aphid (CA) cotyledon dip test; set-up: key: 0 = no effect; 1 = 10-25% kill; 2 = 26-35% kill; 3 = 36-45% kill; 4 = 46-55% kill; 5 = 56-65% kill; 6 = 66-75% kill; 7 = 76-85% kill; 8 = 86-99% kill; 9 = 100% kill; conditions: mortality after 5 days
Procedure: Test solutions are prepared by dissolving the test compound in a 35% acetone in water mixture to give a concentration of 10,000 ppm. Subsequent dilutions are made with water as needed. Aphis gossypii, Cotton Aphid (CA) Cotton plants at the cotyledon stage are selected and cut back to one plant per pot. A heavily infested leaf is taken from the main colony and placed on top of each cotyledon. The aphids are allowed to transfer to the host plant overnight. At the time of test treatment, the leaf used to transfer the aphids is removed and discarded. The cotyledons are dipped in the test solution and allowed to dry. After 5 days, mortality counts are made. [table]

[7] = system: Diabrotica undecimpunctata howardi, eggs-southern corn rootworm (SCR-Eggs); assay: Southern corn rootworm eggs (SCR-Eggs) treated diet test; set-up: key: 0 = no effect; 1 = 10-25% kill; 2 = 26-35% kill; 3 = 36-45% kill; 4 = 46-55% kill; 5 = 56-65% kill; 6 = 66-75% kill; 7 = 76-85% kill; 8 = 86-99% kill; 9 = 100% kill; conditions: mortality after 7 days
Procedure: Test solutions are prepared by dissolving the test compound in a 35% acetone in water mixture to give a concentration of 10,000 ppm. Subsequent dilutions are made with water as needed. Spodoptera eridania, Eggs-southern Armyworm and Diabrotica undecimpunctata howardi, Eggs-southern Corn Rootworm (SAW-Eggs) and (SCR-Eggs) Wells containing artificial diet are treated with the test solutions and dried. The appropriate insect eggs are then placed in the wells. The wells are covered with vented, adhesive, clear plastic covers. After 7 days, mortality counts are made. [table]

Compound | M. incognita (150 ppm) score [1] | Rating Against C. elegans (150 ppm) [2] | SAW (300 ppm) rating [3] | WCR (50 ppm) rating [4] | TSM (300 ppm) rating [5] | CA (300 ppm) rating [6] | SCR Eggs (1000 ppm) rating [7]
CCCCC(CC)COC(=O)CSC(C[N+](=O)[O-])c1ccccc1Cl (racemic) [Example 92] | 0 | 0 | 0 | 5 (5 = 56-65% kill) | 0 | 0 | 0
O=[N+]([O-])CC(SCc1ccccc1)c1ccccc1Cl (racemic) [Example 93] | 0 | 0 | 0 | 0 | 0 | 0 | 0
CCCSC(C[N+](=O)[O-])c1ccccc1Cl (racemic) [Example 94] | 0 | 0 | 0 | 0 | 0 | 0 | 0
C=CCSC(C[N+](=O)[O-])c1ccccc1Cl (racemic) [Example 95] | 0 | 0 | 0 | 4 (4 = 46-55% kill) | 0 | 0 | 0
O=C(O)CSC(C[N+](=O)[O-])c1ccccc1Cl (racemic) [Example 96] | 9 | 9 | 0 | 0 | 0 | 0 | 0
CC(C)c1ccc(C(C[N+](=O)[O-])SCc2ccccc2)cc1 (centres unmarked) [Example 36] | 0 | 0 | 1 (1 = 10-25% kill) | 0 | 0 | 0 | 7 (7 = 76-85% kill)
CCCSC(C[N+](=O)[O-])c1ccc(C(C)C)cc1 (centres unmarked) [Example 37] | 0 | 0 | 0 | 0 | 0 | 0 | 0
C=CCSC(C[N+](=O)[O-])c1ccc(C(C)C)cc1 (centres unmarked) [Example 38] | 0 | 0 | 0 | 0 | 0 | 0 | 9 (9 = 100% kill)
COC(=O)CSC(C[N+](=O)[O-])c1ccccc1Cl (centres unmarked) [Example 88] | 8 | – | 0 | 0 | 0 | 0 | 0
